Measurements: ChEMBL document CHEMBL1201862, “PubChem BioAssay data set” (2004)
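A five-concentration, 48-hour dose response in 96-well plates underlies each endpoint, interpolated linearly between surrounding concentrations. At the GI50, growth is halved.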 Active and inactive are the calls of the source. Cut-off read from the data, not from the text of the source: active = GI50 up to about 1.1 µM and inactive = higher.

How the values were obtained:
Test in all cases: NCI tumour cell line growth inhibition, 48 h
SF-295 = test system: SF-295
SR = test system: SR
MOLT-4 = test system: MOLT-4
K562 = test system: K562
CAKI-1 = test system: CAKI-1
ACHN = test system: ACHN
LOX IMVI = test system: LOX IMVI
U-251 = test system: U-251
M19-MEL = test system: M19-MEL
Malme-3M = test system: Malme-3M
OVCAR-8 = test system: OVCAR-8
LXFL 529 = test system: LXFL 529
UO-31 = test system: UO-31
SNB-78 = test system: SNB-78
COLO 205 = test system: COLO 205
HCT-15 = test system: HCT-15
HOP-62 = test system: HOP-62
HL-60 = test system: HL-60
DU-145 = test system: DU-145
SNB-75 = test system: SNB-75

Row | Compound | GI50 (SF-295) | GI50 (SR) | GI50 (MOLT-4) | GI50 (K562) | GI50 (CAKI-1) | GI50 (ACHN) | GI50 (LOX IMVI) | GI50 (U-251) | GI50 (M19-MEL) | GI50 (Malme-3M) | GI50 (OVCAR-8) | GI50 (LXFL 529) | GI50 (UO-31) | GI50 (SNB-78) | GI50 (COLO 205) | GI50 (HCT-15) [µM] | GI50 (HOP-62) | GI50 (HL-60) | GI50 (DU-145) | GI50 (SNB-75)
1 | O=c1c(C(c2ccc(Cl)cc2)c2c(O)c3ccccc3n(-c3ccccc3)c2=O)c(O)c2ccccc2n1-c1ccccc1 | 14.4 µM (inactive) | 7.43 µM (inactive) | 4.45 µM (inactive) | 40.5 µM (inactive) | 28.2 µM (inactive) | 7.67 µM (inactive) | 18.8 µM (inactive) | 16.9 µM (inactive) | 48.1 µM (inactive) | 21.9 µM (inactive) | 29.4 µM (inactive) | 26.5 µM (inactive) | 22 µM (inactive) | 48.8 µM (inactive) | 30.8 µM (inactive) | 15.2 | 28 µM (inactive) |  |  | 
2 | N#Cc1c(NC(=S)NC(=O)c2ccccc2)nc2c(c1-c1ccccc1)CCC2 | 91.2 µM (inactive) | > 100 µM (inactive) | 58.1 µM (inactive) | > 100 µM (inactive) | > 100 µM (inactive) | > 100 µM (inactive) | > 100 µM (inactive) | > 100 µM (inactive) |  | 78.7 µM (inactive) | 67 µM (inactive) |  | 8.67 µM (inactive) |  | > 100 µM (inactive) | > 100 | > 100 µM (inactive) | > 100 µM (inactive) | > 100 µM (inactive) | 22.7 µM (inactive)
